Molecular target: Solute carrier family 22 member 3 (Homo sapiens) (UniProt O75751)
Assay: SLC22A3 transporter inhibition of MPP+ response – HEK293 JumpIn overexpressing cells, impedance, dose response (AID 1745861)
Settings: HEK293 JumpIn OCT3, MPP+ uptake, impedance (xCELLigence)

Chain of Solute carrier family 22 member 3 (Homo sapiens) (O75751 whole entry, looked up): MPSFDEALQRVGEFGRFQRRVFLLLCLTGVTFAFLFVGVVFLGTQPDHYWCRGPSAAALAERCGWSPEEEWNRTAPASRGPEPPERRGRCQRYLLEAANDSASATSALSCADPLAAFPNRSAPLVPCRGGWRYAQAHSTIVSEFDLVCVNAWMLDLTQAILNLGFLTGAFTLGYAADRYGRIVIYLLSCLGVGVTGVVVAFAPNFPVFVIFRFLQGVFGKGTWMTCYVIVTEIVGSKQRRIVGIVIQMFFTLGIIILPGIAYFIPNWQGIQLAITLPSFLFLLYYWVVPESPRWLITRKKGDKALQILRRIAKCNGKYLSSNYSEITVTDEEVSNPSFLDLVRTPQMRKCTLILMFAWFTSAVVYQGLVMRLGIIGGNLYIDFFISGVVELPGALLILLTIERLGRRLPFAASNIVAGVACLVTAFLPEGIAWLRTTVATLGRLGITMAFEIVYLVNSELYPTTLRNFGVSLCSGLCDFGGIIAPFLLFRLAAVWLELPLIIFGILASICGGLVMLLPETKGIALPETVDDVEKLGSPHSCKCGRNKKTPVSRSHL

| SMILES | IC50 [nM] |
| --- | --- |
| C=CC(=O)N1CCC[C@@H](n2nc(-c3ccc(Oc4ccccc4)cc3)c3c(N)ncnc32)C1 | 7900 |
| C[n+]1ccc(-c2ccccc2)cc1 | 199000 |
| Cc1cn(-c2cc(NC(=O)c3ccc(C)c(Nc4nccc(-c5cccnc5)n4)c3)cc(C(F)(F)F)c2)cn1 | 500 |

Second part, the molecule after the results:

| IC50 [nM] | SMILES |
| --- | --- |
| 1600 | C[C@]12C[C@H](O)[C@H]3[C@@H](CCC4=CC(=O)CC[C@@]43C)[C@@H]1CC[C@@H]2C(=O)CO |
| 400 | CCN1/C(=C/c2ccc3ccccc3[n+]2CC)C=Cc2ccccc21 |

— PubChem BioAssay AID1745861
